In patent US12240857B2 (priority 2017, dated 2025):
Where two headings read alike, the source gives them in different places.

Tests used:
[1] = test system: BDBV mucin-domain-deleted glycoprotein pseudotyped VSV; assay: microbe, parasite or virus in culture; format: cell-based, Bundibugyo ebolavirus
[2] = test system: EBOV mucin-domain-deleted glycoprotein pseudotyped VSV; assay: microbe, parasite or virus in culture; format: cell-based, Zaire ebolavirus
Vero cells = settings: for % cell viability at 3 μM / % cell viability at 10 μM / % cell viability at 5 μM: African green monkey
[3] = test system: parent VSV virus expressing the native VSV glycoprotein; assay: microbe, parasite or virus in culture; format: cell-based; settings: Vesicular stomatitis virus, Vero; for inhibition at 5 µM: read-out: VSV % inh. at 5 μM
wild-type Ebola Zaire [4] = test system: wild-type Ebola Zaire
in vitro = settings: African green monkey
wild-type Ebola Zaire [5] = assay: microbe, parasite or virus in culture; settings: Zaire ebolavirus, HeLa, read-out: Ebola Zaire EC50
[6] = test system: full-length Marburgvirus (MARV) GP pseudotyped VSV; assay: microbe, parasite or virus in culture; format: cell-based, Marburg marburgvirus; settings: Orthomarburgvirus, read-out: EC50 Pseudotype Assays MARV
[7] = test system: full-length LASV glycoprotein pseudotyped VSV; assay: microbe, parasite or virus in culture; format: cell-based, Lassa virus; settings: Vesicular stomatitis virus, read-out: EC50 Pseudotype Assays LASV
[8] = test system: full-length Ebola Zaire GP pseudotyped VSV (EBOV_FL); assay: microbe, parasite or virus in culture; format: cell-based; settings: Zaire ebolavirus, read-out: EC50 Pseudotype Assays EBOV_FL
[9] = Vesicular stomatitis virus, Vero, 24 h, read-out: EC50 BDBV
[10] = Zaire ebolavirus, Vero, 24 h, read-out: EC50 EBOV
[11] = Vesicular stomatitis virus, Vero, read-out: EC50 BDBV
[12] = Zaire ebolavirus, Vero, read-out: EC50 EBOV

SMILES	EC50 [1, 9]	EC50 [2, 10]	EC50 [1, 11]	CC50 (in vitro; CC50)	EC50 [2, 12]	also measured
O=C(NC1CCN(Cc2ccccc2)CC1)C12CC3CC(CC(Cl)(C3)C1)C2 [Example B9, N-(1-benzylpiperidin-4-yl)-3-chloro adamantane-1-carboxamide]	3.1 µM	3.8 µM				% cell viability at 3 μM (Vero cells): 112%; % cell viability at 10 μM (Vero cells): 104%
O=C(N1CCN(c2ccccc2)CC1)C12CC3CC(C1)CC(c1ccccc1)(C3)C2 [Example B3, 1-phenyl-4-[(3-phenyladamantan-1-yl)carbonyl]piperazine]	> 5 µM	0.61 µM				% cell viability at 5 μM (Vero cells): 83%
O=C(NC1CCN(Cc2ccccc2)CC1)C12CC3CC(C1)CC(c1ccccc1)(C3)C2 [Example B1, N-(1-benzylpiperidin-4-yl)-3-phenyladamantane-1-carboxamide]	0.77 µM	0.44 µM				inhibition at 5 µM [3]: < 20%; % cell viability at 5 μM (Vero cells): 62%
CC12CC3CC(C)(C1)CC(C(=O)NCCN1CCCCC1)(C3)C2 [Example B12, 3,5-dimethyl-N-[2-(piperidin-1-yl)ethyl] adamantane-1-carboxamide]		50 µM				inhibition at 5 µM [3]: < 20%; % cell viability at 5 μM (Vero cells): 90%
COc1ccc(C(CNC(=O)C23CC4CC(C2)CC(c2ccccc2)(C4)C3)N2CCOCC2)cc1 (stereo not drawn) [Example B7, N-[2-(4-methoxyphenyl)-2-(morpholin-4-yl)ethyl]-3-phenyl adamantane-1-carboxamide]	3.1 µM	3.2 µM				% cell viability at 3 μM (Vero cells): 112%; % cell viability at 10 μM (Vero cells): 95%
CC12CC3CC(C(=O)N4CCNCC4)(C1)CC(c1ccccc1)(C3)C2 (stereo not drawn) [Example A71]			0.13 µM	4.6 µM	0.13 µM	Ebola Zaire SI (CC50/EC50) (wild-type Ebola Zaire [4]): >6; EC50 (wild-type Ebola Zaire [5]): 0.87 µM
COc1ccc(N2CCN(CCCNC(=O)C34CC5CC(C3)CC(c3ccccc3)(C5)C4)CC2)cc1 [Example B6, N-{3-[4-(4-methoxyphenyl)piperazin-1-yl]propyl}-3-phenyl adamantane-1-carboxamide]	1.6 µM	0.92 µM				% cell viability at 3 μM (Vero cells): 75%; % cell viability at 10 μM (Vero cells): 25%
O=C(CN1CCN(C(=O)C23CC4CC(C2)CC(c2ccccc2)(C4)C3)CC1)NC1CC1 [Example B10, N-cyclopropyl-2-{4-[(3-phenyladamantan-1-yl)carbonyl]piperazin-1-yl}acetamide]		< 5 µM				inhibition at 5 µM [3]: < 20%
CC(C)(CNC(=O)C12CC3CC(C1)CC(c1ccccc1)(C3)C2)N1CCOCC1 [Example B4, N-[2-methyl-2-(morpholin-4-yl)propyl]-3-phenyladamantane-1-carboxamide]	2.69 µM	0.69 µM				% cell viability at 3 μM (Vero cells): 100%; % cell viability at 10 μM (Vero cells): 114%
Cc1ccc(C23CC4CC(CC(C(=O)N5CCN(C)CC5)(C4)C2)C3)cc1 [Example B14, 1-methyl-4-{[3-(4-methylphenyl)adamantan-1-yl]carbonyl} piperazine]		5.6 µM				inhibition at 5 µM [3]: < 20%; % cell viability at 5 μM (Vero cells): 95%
O=C(N1CCNCC1)C12CC3CC(C1)CC(c1ccccc1)(C3)C2 [Example A60]			0.17 µM		0.21 µM	EC50 ([1]; Vesicular stomatitis virus, Vero, read-out: EC50 Pseudotype Assays BDBV): 0.21 µM; CC50 (in vitro; Cytotox CC50): > 10 µM; EC50 [6]: 7.9 µM; EC50 ([2]; Zaire ebolavirus, Vero, read-out: EC50 Pseudotype Assays EBOV): 0.26 µM; EC50 [7]: > 10 µM; EC50 ([3]; read-out: EC50 Pseudotype Assays VSV): > 10 µM; EC50 [8]: 0.28 µM
CN1CCN(NC(=O)C23CC4CC(C)(C2)CC(c2ccccc2)(C4)C3)CC1 (stereo not drawn) [Example A47]			0.17 µM	36.2 µM	0.07 µM	Ebola Zaire SI (CC50/EC50) (wild-type Ebola Zaire [4]): >8.5; EC50 (wild-type Ebola Zaire [5]): 0.71 µM
Cc1ccccc1-c1nnn(CC(=O)NC(C)C23CC4CC(CC(C4)C2)C3)n1 (stereo not drawn) [Example D42, N-[1-(adamantan-1-yl)ethyl]-2-[5-(2-methylphenyl)-2H-1,2,3,4-tetrazol-2-yl] acetamide]						EC50 ([1]; read-out: EC50 BDBV): 3.9 µM; EC50 ([2]; read-out: EC50 EBOV): 3.2 µM; CC50 (Vero cells): > 10 µM
Cc1ccc(C23CC4CC(CC(C(=O)NC5CN6CCC5CC6)(C4)C2)C3)cc1 (stereo not drawn) [Example B11, N-{1-azabicyclo[2.2.2]octan-3-yl}-3-(4-methylphenyl)adamantane-1-carboxamide]		< 5 µM				inhibition at 5 µM [3]: < 20%; % cell viability at 5 μM (Vero cells): 92%
O=C(NCC(c1cccs1)N1CCOCC1)C12CC3CC(C1)CC(c1ccccc1)(C3)C2 (stereo not drawn) [Example B8, N-[2-(morpholin-4-yl)-2-(thiophen-2-yl)ethyl]-3-phenyladamantane-1-carboxamide]	4.6 µM	3.6 µM				% cell viability at 3 μM (Vero cells): 103%; % cell viability at 10 μM (Vero cells): 90%
CC(C)CN1CCOC(CNC(=O)C23CC4CC(C2)CC(c2ccccc2)(C4)C3)C1 (stereo not drawn) [Example B2, N-{[4-(2-methylpropyl)morpholin-2-yl]methyl}-3-phenyladamantane-1-carboxamide]	0.93 µM	0.57 µM				% cell viability at 3 μM (Vero cells): 100%; % cell viability at 10 μM (Vero cells): 97%
O=C(N[C@@H]1CCNC1)C12CC3CC(C1)CC(c1ccccc1)(C3)C2 [Example B5, 3-phenyl-N-[(3R)-pyrrolidin-3-yl] adamantane-1-carboxamide]	0.56 µM	0.79 µM				inhibition at 5 µM [3]: < 20%; % cell viability at 5 μM (Vero cells): 97%

SMILES	EC50 [1, 9]	EC50 [2, 10]	EC50 [1, 11]	CC50 (in vitro; CC50)	EC50 [2, 12]	also measured
Cc1ccc(C23CC4CC(CC(C(=O)N5CCN(Cc6ccccc6)CC5)(C4)C2)C3)cc1 [Example B13, 1-benzyl-4-{[3-(4-methylphenyl)adamantan-1-yl]carbonyl}piperazine]	> 5 µM	> 5 µM				inhibition at 5 µM [3]: < 20%
c1ccc(C23CC4CC(CC(CNc5ccc(CN6CCCCC6)cn5)(C4)C2)C3)cc1 [Example C15, N-[(3-phenyladamantan-1-yl)methyl]-5-(piperidin-1-ylmethyl)pyridin-2-amine]			0.98 µM	3.9 µM	> 1 µM	
CC1CCCCN1CC(O)COCCC12CC3CC(CC(C3)C1)C2 (stereo not drawn) [Example D11, 1-[2-(adamantan-1-yl)ethoxy]-3-(2-methylpiperidin-1-yl)propan-2-ol]	0.19 µM	0.44 µM		7.5 µM		
O=C(CC12CC3CC(C1)CC(c1ccccc1)(C3)C2)NC1CCN(Cc2ccccc2)CC1 [Example A32]			0.26 µM	1.6 µM	0.2 µM	
N[C@H]1CC[C@H](NC(=O)C23CC4CC(C2)CC(C(F)(F)F)(C4)C3)CC1 [Example A94]			0.88 µM	5.1 µM	1 µM	
OC(COCCC12CC3CC(CC(C3)C1)C2)CN1CCOCC1 (stereo not drawn) [Example D16, 1-[2-(adamantan-1-yl)ethoxy]-3-(morpholin-4-yl)propan-2-ol]	3.2 µM	3.8 µM		> 10 µM		
CC12CC3CC(C(=O)NC4CNC4)(C1)CC(c1ccccc1)(C3)C2 (stereo not drawn) [Example A72]			0.29 µM	17.4 µM	0.28 µM	
[O-][S+](NC1CCNCC1)C12CC3CC(CC(C3)C1)C2 (stereo not drawn) [Example A204, N-(piperidin-4-yl)adamantane-1-sulfinamide]			> 1 µM	> 100 µM	> 1 µM	
O=C(NC1CCN(Cc2ccccc2)CC1)C12CC3CC(CC(C3)C1)C2 [Example B15, N-(1-benzylpiperidin-4-yl)adamantane-1-carboxamide]	3.9 µM	5.9 µM				% cell viability at 3 μM (Vero cells): 99%; % cell viability at 10 μM (Vero cells): 98%
CC12CC3CC(C(=O)N[C@H]4[C@@H]5CNC[C@@H]54)(C1)CC(c1ccccc1)(C3)C2 (stereo partly drawn) [Example A102]			0.21 µM	29 µM	0.12 µM	
c1cc(C23CC4CC(CC(C4)C2)C3)ccc1OCCCN1CCCCC1 [Example C5, 1-(3-(4-(adamantan-1-yl)phenoxy)propyl)piperidine]			0.55 µM	14.3 µM	0.14 µM	
CN(C)CCNC(=O)C12CC3CC(C)(C1)CC(c1ccccc1)(C3)C2 (stereo not drawn) [Example A46]			0.21 µM	13.5 µM	0.18 µM	
O=C(NC1CCNCC1)C12CC3CC1CC(c1ccccc1)(C3)C2 (stereo not drawn) [Example A88]			0.5 µM	12.5 µM	0.36 µM	
N[C@H]1CC[C@H](NC(=O)C2C3CC4CC2CC(c2ccccc2)(C4)C3)CC1 (stereo partly drawn) [Example A84]			0.11 µM	9 µM	0.146 µM	
CC(NC(=O)Cn1ccc(C(F)(F)F)n1)C12CC3CC(CC(C3)C1)C2 (stereo not drawn) [Example D44, N[1-(adamantan-1-yl)ethyl]-2-[3-(trifluoromethyl)-1H-pyrazol-1-yl] acetamide]	2.7 µM	5.8 µM		> 10 µM		
CC1CCN(CC(O)CCOc2ccc(C34CC5CC(CC(C5)C3)C4)cc2)CC1 (stereo not drawn) [Example C7, 4-(4-(adamantan-1-yl)phenoxy)-1-(4-methylpiperidin-1-yl)butan-2-ol]			0.77 µM	4.1 µM	0.47 µM	
O=C(N[C@H]1CCN(Cc2ccccc2)C1)C12CC3CC(C1)CC(c1ccccc1)(C3)C2 [Example A15]			2.6 µM	> 10 µM	1.7 µM	
